Test results from ChEMBL document CHEMBL4814018, “Rationally designed TNF-α inhibitors: Identification of promising cytotoxic agents” (Bioorg Med Chem Lett, 2021).
Active and inactive are the calls of the source. The rule behind the calls is not given here.

Assays:
BV-2 [1] = assay: Antiinflammatory activity against mouse BV2 cells assessed as inhibition of LPS-induced TNFalpha production at 1 uM by enzyme immunoassay; type: functional; parameters: scale not given: the % may be the effect or the level left
BV-2 [2] = assay: Antiinflammatory activity against mouse BV2 cells assessed as reduction in LPS-induced IL6 production at 1 uM by enzyme immunoassay; type: functional, cell-based
BV-2 [3] = assay: Antiinflammatory activity against mouse BV2 cells assessed as decrease in LPS-induced NO production at 1 to 5 uM pretreated with compound followed by LPS stimulation incubated for 4 to 48 hrs by enzyme immunoassay; type: functional, cell-based; settings: dose 1-5 µM, time 4-48 hrs
RPMI-8226 [4] = assay: Growth inhibition of human RPMI8226 cells at 10 uM incubated for 48 hrs by sulforhodamine B assay relative to control; type: functional; settings: read-out: GI
NCI-H226 [5] = assay: Growth inhibition of human NCI-H226 cells at 10 uM incubated for 48 hrs by sulforhodamine B assay relative to control; type: functional; settings: read-out: GI
NCI-H460 [6] = assay: Growth inhibition of human NCI-H460 cells at 10 uM incubated for 48 hrs by sulforhodamine B assay relative to control; type: functional; settings: read-out: GI
HCT-116 [7] = assay: Growth inhibition of human HCT-116 cells at 10 uM incubated for 48 hrs by sulforhodamine B assay relative to control; type: functional; settings: read-out: GI
SW-620 [8] = assay: Growth inhibition of human SW-620 cells at 10 uM incubated for 48 hrs by sulforhodamine B assay relative to control; type: functional; settings: read-out: GI
UACC-257 [9] = assay: Growth inhibition of human UACC-257 cells at 10 uM incubated for 48 hrs by sulforhodamine B assay relative to control; type: functional; settings: read-out: GI
UACC-62 [10] = assay: Growth inhibition of human UACC-62 cells at 10 uM incubated for 48 hrs by sulforhodamine B assay relative to control; type: functional; settings: read-out: GI
IGROV-1 [11] = assay: Growth inhibition of human IGROV-1 cells at 10 uM incubated for 48 hrs by sulforhodamine B assay relative to control; type: functional; settings: read-out: GI
OVCAR-3 [12] = assay: Growth inhibition of human OVCAR-3 cells at 10 uM incubated for 48 hrs by sulforhodamine B assay relative to control; type: functional; settings: read-out: GI
OVCAR-4 [13] = assay: Growth inhibition of human OVCAR-4 cells at 10 uM incubated for 48 hrs by sulforhodamine B assay relative to control; type: functional; settings: read-out: GI
OVCAR-5 [14] = assay: Growth inhibition of human OVCAR-5 cells at 10 uM incubated for 48 hrs by sulforhodamine B assay relative to control; type: functional; settings: read-out: GI
A498 [15] = assay: Growth inhibition of human A498 cells at 10 uM incubated for 48 hrs by sulforhodamine B assay relative to control; type: functional; settings: read-out: GI
CAKI-1 [16] = assay: Growth inhibition of human CAKI-1 cells at 10 uM incubated for 48 hrs by sulforhodamine B assay relative to control; type: functional; settings: read-out: GI
TK-10 [17] = assay: Growth inhibition of human TK-10 cells at 10 uM incubated for 48 hrs by sulforhodamine B assay relative to control; type: functional; settings: read-out: GI
MCF7 [18] = assay: Growth inhibition of human MCF7 cells at 10 uM incubated for 48 hrs by sulforhodamine B assay relative to control; type: functional; settings: read-out: GI
T47D [19] = assay: Growth inhibition of human T47D cells at 10 uM incubated for 48 hrs by sulforhodamine B assay relative to control; type: functional; settings: read-out: GI
MDA-MB-468 [20] = assay: Growth inhibition of human MDA-MB-468 cells at 10 uM incubated for 48 hrs by sulforhodamine B assay relative to control; type: functional; settings: read-out: GI
MDA-MB-231 [21] = assay: Growth inhibition of human MDA-MB-231 cells at 10 uM incubated for 48 hrs by sulforhodamine B assay relative to control; type: functional; settings: read-out: GI
K562 [22] = assay: Growth inhibition of human K562 cells at 10 uM incubated for 48 hrs by sulforhodamine B assay relative to control; type: functional; settings: read-out: GI
SR [23] = assay: Growth inhibition of human SR cells at 10 uM incubated for 48 hrs by sulforhodamine B assay relative to control; type: functional; settings: read-out: GI
HOP-62 [24] = assay: Growth inhibition of human HOP-62 cells at 10 uM incubated for 48 hrs by sulforhodamine B assay relative to control; type: functional; settings: read-out: GI
HOP-92 [25] = assay: Growth inhibition of human HOP-92 cells at 10 uM incubated for 48 hrs by sulforhodamine B assay relative to control; type: functional; settings: read-out: GI
SF-295 [26] = assay: Growth inhibition of human SF-295 cells at 10 uM incubated for 48 hrs by sulforhodamine B assay relative to control; type: functional; settings: read-out: GI
U-251 [27] = assay: Growth inhibition of human U-251 cells at 10 uM incubated for 48 hrs by sulforhodamine B assay relative to control; type: functional; settings: read-out: GI
SK-MEL-2 [28] = assay: Growth inhibition of human SK-MEL-2 cells at 10 uM incubated for 48 hrs by sulforhodamine B assay relative to control; type: functional; settings: read-out: GI
SK-OV-3 [29] = assay: Growth inhibition of human SK-OV-3 cells at 10 uM incubated for 48 hrs by sulforhodamine B assay relative to control; type: functional; settings: read-out: GI
UO-31 [30] = assay: Growth inhibition of human UO-31 cells at 10 uM incubated for 48 hrs by sulforhodamine B assay relative to control; type: functional; settings: read-out: GI
RPMI-8226 [31] = assay: Growth inhibition of human RPMI-8226 cells incubated for 48 hrs by sulforhodamine B assay; type: functional; settings: dose 10 µM
NCI-H226 [32] = assay: Growth inhibition of human NCI-H226 cells incubated for 48 hrs by sulforhodamine B assay; type: functional
NCI-H460 [33] = assay: Growth inhibition of human NCI-H460 cells incubated for 48 hrs by sulforhodamine B assay; type: functional
HCT-116 [34] = assay: Growth inhibition of human HCT-116 cells incubated for 48 hrs by sulforhodamine B assay; type: functional
SW-620 [35] = assay: Growth inhibition of human SW-620 cells incubated for 48 hrs by sulforhodamine B assay; type: functional
UACC-257 [36] = assay: Growth inhibition of human UACC-257 cells incubated for 48 hrs by sulforhodamine B assay; type: functional
UACC-62 [37] = assay: Growth inhibition of human UACC-62 cells incubated for 48 hrs by sulforhodamine B assay; type: functional
IGROV-1 [38] = assay: Growth inhibition of human IGROV-1 cells incubated for 48 hrs by sulforhodamine B assay; type: functional
OVCAR-3 [39] = assay: Growth inhibition of human OVCAR-3 cells incubated for 48 hrs by sulforhodamine B assay; type: functional
OVCAR-4 [40] = assay: Growth inhibition of human OVCAR-4 cells incubated for 48 hrs by sulforhodamine B assay; type: functional
OVCAR-5 [41] = assay: Growth inhibition of human OVCAR-5 cells incubated for 48 hrs by sulforhodamine B assay; type: functional
A498 [42] = assay: Growth inhibition of human A498 cells incubated for 48 hrs by sulforhodamine B assay; type: functional
CAKI-1 [43] = assay: Growth inhibition of human CAKI-1 cells incubated for 48 hrs by sulforhodamine B assay; type: functional
TK-10 [44] = assay: Growth inhibition of human TK-10 cells incubated for 48 hrs by sulforhodamine B assay; type: functional
MCF7 [45] = assay: Growth inhibition of human MCF7 cells incubated for 48 hrs by sulforhodamine B assay; type: functional
T47D [46] = assay: Growth inhibition of human T47D cells incubated for 48 hrs by sulforhodamine B assay; type: functional
MDA-MB-468 [47] = assay: Growth inhibition of human MDA-MB-468 cells incubated for 48 hrs by sulforhodamine B assay; type: functional
MDA-MB-231 [48] = assay: Growth inhibition of human MDA-MB-231 cells incubated for 48 hrs by sulforhodamine B assay; type: functional
K562 [49] = assay: Growth inhibition of human K562 cells incubated for 48 hrs by sulforhodamine B assay; type: functional
SR [50] = assay: Growth inhibition of human SR cells incubated for 48 hrs by sulforhodamine B assay; type: functional
HOP-62 [51] = assay: Growth inhibition of human HOP-62 cells incubated for 48 hrs by sulforhodamine B assay; type: functional
HOP-92 [52] = assay: Growth inhibition of human HOP-92 cells incubated for 48 hrs by sulforhodamine B assay; type: functional
SF-295 [53] = assay: Growth inhibition of human SF-295 cells incubated for 48 hrs by sulforhodamine B assay; type: functional
U-251 [54] = assay: Growth inhibition of human U-251 cells incubated for 48 hrs by sulforhodamine B assay; type: functional
SK-MEL-2 [55] = assay: Growth inhibition of human SK-MEL-2 cells incubated for 48 hrs by sulforhodamine B assay; type: functional
SK-OV-3 [56] = assay: Growth inhibition of human SK-OV-3 cells incubated for 48 hrs by sulforhodamine B assay; type: functional
UO-31 [57] = assay: Growth inhibition of human UO-31 cells incubated for 48 hrs by sulforhodamine B assay; type: functional
[58] = tested on: Panel NCI-60 (60 carcinoma cell lines); assay: Growth inhibition of human Panel NCI-60 (60 carcinoma cell lines) incubated for 48 hrs by sulforhodamine B assay; type: functional
[59] = Therapeutic index, ratio of LC50 for human Panel NCI-60 (60 carcinoma cell lines) to GI50 for human Panel NCI-60 (60 carcinoma cell lines); type: functional
BV-2 [60] = assay: Cytotoxicity against mouse BV2 cells incubated for 48 hrs by MTT assay; type: cell-based; settings: BV-2, 48 h
[61] = read-out: LC50 (the source's name)

O=C1COCCN1c1ccc(NCc2cn(Cc3ccc(Cl)cc3)c3ccccc23)cc1
Activity (BV-2 [1]): 75%
Activity (BV-2 [2]): Active
Activity (BV-2 [3]): Active
inhibition of growth at 10 µM (RPMI-8226 [4]): 95%
inhibition of growth at 10 µM (NCI-H226 [5]): 93%
inhibition of growth at 10 µM (NCI-H460 [6]): 93%
inhibition of growth at 10 µM (HCT-116 [7]): 96%
inhibition of growth at 10 µM (SW-620 [8]): 73%
inhibition of growth at 10 µM (UACC-257 [9]): 100%
inhibition of growth at 10 µM (UACC-62 [10]): 100%
inhibition of growth at 10 µM (IGROV-1 [11]): 100%
inhibition of growth at 10 µM (OVCAR-3 [12]): 96%
inhibition of growth at 10 µM (OVCAR-4 [13]): 94%
inhibition of growth at 10 µM (OVCAR-5 [14]): 100%
inhibition of growth at 10 µM (A498 [15]): 100%
inhibition of growth at 10 µM (CAKI-1 [16]): 100%
inhibition of growth at 10 µM (TK-10 [17]): 100%
inhibition of growth at 10 µM (MCF7 [18]): 96%
inhibition of growth at 10 µM (T47D [19]): 95%
inhibition of growth at 10 µM (MDA-MB-468 [20]): 100%
inhibition of growth at 10 µM (MDA-MB-231 [21]): 77%
inhibition of growth at 10 µM (K562 [22]): 94%
inhibition of growth at 10 µM (SR [23]): 87%
inhibition of growth at 10 µM (HOP-62 [24]): 83%
inhibition of growth at 10 µM (HOP-92 [25]): 90%
inhibition of growth at 10 µM (SF-295 [26]): 85%
inhibition of growth at 10 µM (U-251 [27]): 89%
inhibition of growth at 10 µM (SK-MEL-2 [28]): 89%
inhibition of growth at 10 µM (SK-OV-3 [29]): 91%
inhibition of growth at 10 µM (UO-31 [30]): 92%
GI50 (RPMI-8226 [31]): 2100 nM
GI50 (NCI-H226 [32]): 150 nM
CC50 (NCI-H226 [32]; [61]): 3600 nM
GI50 (NCI-H460 [33]): 260 nM
GI50 (HCT-116 [34]): 240 nM
GI50 (SW-620 [35]): 2200 nM
GI50 (UACC-257 [36]): 270 nM
GI50 (UACC-62 [37]): 390 nM
GI50 (IGROV-1 [38]): 250 nM
GI50 (OVCAR-3 [39]): 1200 nM
GI50 (OVCAR-4 [40]): 480 nM
GI50 (OVCAR-5 [41]): 180 nM
CC50 (OVCAR-5 [41]; [61]): 9600 nM
GI50 (A498 [42]): 30 nM
CC50 (A498 [42]; [61]): 400 nM
GI50 (CAKI-1 [43]): 50 nM
CC50 (CAKI-1 [43]; [61]): > 100000 nM
GI50 (TK-10 [44]): 140 nM
CC50 (TK-10 [44]; [61]): > 100000 nM
GI50 (MCF7 [45]): 290 nM
GI50 (T47D [46]): 260 nM
GI50 (MDA-MB-468 [47]): 100 nM
CC50 (MDA-MB-468 [47]; [61]): 800 nM
GI50 (MDA-MB-231 [48]): 4500 nM
GI50 (K562 [49]): 1800 nM
GI50 (SR [50]): 3000 nM
GI50 (HOP-62 [51]): 1000 nM
GI50 (HOP-92 [52]): 1600 nM
GI50 (SF-295 [53]): 1800 nM
GI50 (U-251 [54]): 1200 nM
GI50 (SK-MEL-2 [55]): 2180 nM
GI50 (SK-OV-3 [56]): 2290 nM
GI50 (UO-31 [57]): 2080 nM
GI50 [58]: 2090 nM
TGI [58]: 25100 nM
CC50 [58, 61]: 70800 nM
TI [59]: 34
IC50 (BV-2 [60]): > 10000 nM

O=c1[nH]cc(F)c(=O)[nH]1 [FLUOROURACIL]
TI [59]: >133
